# Measured values as given in US8790934B2, “Nanoparticles” (Consejo Superior de Investigaciones Cientificas, priority 2000, dated 2014).
# Test: solubility in methanol and water
# Format: physicochemical
# Settings: for solubility in methanol: methanol (MeOH)
# Method: Synthesis of glyconanoparticles: A solution of disulphide 1,2, or 3 (0.012M, 5.5 eq) in MeOH was added to a solution of tetrachloroauric acid (0.025M, 1 eq) in water. NaBH4 (1M, 22 eq) in water was added in small portions with rapid stirring. The black suspension that was formed was stirred for additional 2 hours and the solvent was then removed under vacuum. The crude of the reaction was washed with MeOH and was centrifuged for 10 minutes. The methanol was removed and the process was repeated several times until the starting material was not detected by TLC. The glyco-nanoparticles are completely insoluble in MeOH but quite soluble in water. • They were purified by dialysis: 50 mg of crude product was dissolved in 10 mL of water (NANOpure). This solution was loaded into 10 cm segments of cellulose ester dialysis membrane (SIGMA, MWCO=12400) and placed in 4 L of water (NANOpure). The dark glyconanoparticles solution was collected from the dialysis segments and lyophilized. The products obtained were free of salts and starting material (absence of signals due to disulphide and Na^+ in NMR).
# The presentation of the carbohydrate molecules at the nanoparticles surface was then investigated. The molecular properties of the neoglycoconjugates 1, 2 and 3 suffer a differential change after attaching them to the gold surface. […] The Le^x derivative 3 is soluble in methanol and water, its nanoparticle 3-Au, however, is insoluble in methanol and very soluble in water. These differences in solubility can be used to purify the glyconanoparticles from the non-reacted disulfides by washing them with methanol. However, the most significant fact in these changes is that they reveal the influence of clustering at the surface on the carbohydrate presentation to the surrounding.
smiles,measurement,value
OCC1OC(OC2C(CO)OC(OCCCCCCCCCCCSSCCCCCCCCCCCOC3OC(CO)C(OC4OC(CO)C(O)C(O)C4O)C(O)C3O)C(O)C2O)C(O)C(O)C1O (stereo not shown) [Compound 2],solubility in methanol,soluble
same,solubility in water,insoluble
CC(=O)N[C@H]1[C@H](OCCCCCCCCCCCSSCCCCCCCCCCCO[C@@H]2O[C@H](CO)[C@@H](O[C@@H]3O[C@H](CO)[C@H](O)[C@H](O)[C@H]3O)[C@H](O[C@@H]3O[C@@H](C)[C@@H](O)[C@@H](O)[C@@H]3O)[C@H]2NC(C)=O)O[C@H](CO)[C@@H](O[C@@H]2O[C@H](CO)[C@H](O)[C@H](O)[C@H]2O)[C@@H]1O[C@@H]1O[C@@H](C)[C@@H](O)[C@@H](O)[C@@H]1O [Compound 3],solubility in methanol,soluble
same,solubility in water,soluble
